The subject of data set [1] is lipopolysaccharide (LPS)-treated ApoE-/- mice. Conditions: Zhao et al. 2012; cited from earlier work.
Data set [2] relates to pre-hypertensive patients. Conditions: amiloride monotherapy; independent of blood pressure lowering effect; cited from earlier work.
The test system of data set [3] is hypercholesterolemic mice (PCSK9-AAV-mediated LDLR knockdown). Nature of the data set: Atherosclerosis model: PCSK9-AAV, partial LCA ligation, Western diet. The class given is in vivo, mouse. From the text:
Mice were given a single injection of AAV-PCSK9 (1×1011 VG) and fed a Western diet (Envigo, TD.88137, Indianapolis, Ind.). One week after AAV-PCSK9 injection, mice underwent partial carotid ligation surgery as previously described (67) and Western diet was continued for another 3 weeks. In separate experiments, mice were given a single injection of AAV-PCSK9 (1×1011 VG) and fed a Western diet for 16 weeks. Mice were anesthetized (isoflurane inhalation, 3%) and exsanguinated. Blood was collected from left ventricle using a heparinized syringe fitted with a 21 G needle. Aortic arch and carotid arteries were collected, and gross macroscopic images were acquired. For molecular histology studies, carotids and aortic arch were fixed in 4% paraformaldehyde (PFA), embedded in OCT compound and stored at −80° C. until use.
ORO staining: Atherosclerosis development in carotid arteries and whole aorta were studied initially by gross imaging followed by Oil Red O (ORO) staining and plaque quantification. Briefly, the entire aorta was isolated, cleaned of peri-adventitial fat, fixed and imaged on the surface of black silicone-coated dissection dishes. Left carotid arteries were embedded in OCT and 10 μm thick cross-sections were prepared. The arteries were divided into 3 regions based on their distance from the aortic arch: proximal (0-400 μm), middle (2,000-2,400 μm) and distal (4,000-4,400 μm). Frozen sections and whole aortas were then stained with ORO solution (2%) and images were taken using light microscope equipped with a camera under 20× and 1.6× objective lens. The total area, lumen area and ORO positive area were measured for six sections/anatomical position per mouse using Image J software. The ratio of ORO positive area to arterial area is represented as plaque area. Plasma total cholesterol concentrations were determined by the Amplex™ Red Cholesterol Assay Kit (ThermoFisher, Rockford, Ill.). Plasma lipid profiles were obtained by column fractionation and measurements of fraction cholesterol content.
Hematoxylin and Eosin (H&E) or Masson's trichrome staining: Frozen sections were also used for Hematoxylin and Eosin (H&E) or Masson's trichrome staining following standard procedures to evaluate the lesion size and collagen content, respectively.
Orcein and Martius Scarlet Blue (OMSB) staining: OMSB was used for qualitative and quantitative analysis of atherosclerotic plaques as previously described. Briefly, left carotid arteries were dissected out, fixed in 4% buffered paraformaldehyde (pH=7.4) for at least 48 hr, and then routinely processed and embedded in paraffin (tissue processor TP1020; Leica, Wetzlar, Germany). Cross sections were cut every 5 m along the artery (starting from the proximal end) and mounted serially on silanized slides. Sections were stained and mounted automatically using Leica ST5010 Autostainer XL combined with Leica CV5030 Glass Coverslip. Deparaffinized sections through xylene and ethanol, and rehydrate to water. Postfix sections in Bouin's fixative at 56° C. for 1 hour, then rinse for 10 min in tap water to remove traces of picric acid. Stain with orcein for 20 min at 56° C. Differentiate in acidic alcohol for 2 min and then transfer to 96% ethanol for 30 s. Stain with martius yellow for 3 min and rinse in distilled water (2×2 min). Stain with crystal scarlet for 10 min. Differentiate with phosphotungstic acid 2 min and transfer to distilled water (for about 10 s). Stain with methyl blue 5 min. Rinse in acetic acid water 3 min, dehydrate through ethanol and carbol-xylene, clear in xylene, and mount in DPX or other resin. Staining of collagen with picrosirius red. The sections were examined and digital images of stained arteries were recorded using Olympus dotSlide system (Olympus, Tokyo, Japan). Segmentation algorithm allowed to distinguish vessel wall area, lumen area, plaque area, and area of the plaque occupied by collagen. The results were presented as areas of identified components in μm2. […]

The test system of a further data set is THP-1 macrophages. Nature of the data set: Foam cell formation / nLDL macropinocytosis, Nile Red FACS. The format is cell-based, human. Conditions: for macropinocytosis of nLDL (Nile Red fluorescence): M-CSF 100 ng/mL, PDGF 200 ng/mL. As for the experimental part:
Flow cytometry experiments were performed using the BD Accuri C6 flow cytometer using a standard protocol.
Foam cell formation: THP-1 macrophages or bone marrow-derived macrophages were treated with vehicle, known macropinocytosis stimulators (PMA 1 μM, M-CSF 100 ng/mL or PDGF 200 ng/mL)+/− macropinocytosis inhibitors (imipramine 10 μM or EIPA 25 μM; 1 hour pre-incubation) in the presence of nLDL, ox-LDL, or ac-LDL ([…]) for 24 hours. Cells were fixed in 2% PFA and stained with Nile Red (50 ng/mL) for 7 min. Fluorescence intensity was measured using the FL3 channel for Nile Red (Ex: 488 nm, Em: 670 nm).

Data set [4] concerns macropinocytosis in macrophages. Nature of the data set: Unbiased screen of FDA-approved drug library for inhibition of macrophage macropinocytosis. The class given is cell-based. Conditions: screen of an FDA-approved drug library.
For data set [5] the following is noted: cited from earlier work.
The mark [6] stands for this setting: imipramine-treated vs control mice.

“Also recorded” adds a separate entry of the source.

Take `N=C(N)NC(=O)c1nc(Cl)c(N)nc1N` [amiloride]: the lesion development result in data set [1] is “reduces”. In addition, the “pulse wave velocity (PWV)” value in data set [2] is recorded as “improves”.

Take `CN(C)CCCN1c2ccccc2CCc2ccccc21` [imipramine]: the “atherosclerotic lesion formation (OMSB staining)” value in data set [3] (imipramine 9 mg/mL, pump rate 0.11 μl/hour, sc, LDLR-knockdown mice, vs vehicle) was “significantly attenuates; also recorded: attenuated”. In data set [3] (imipramine sc vs vehicle), the “collagen area (collagen %)” value is recorded as “inhibited” and the “relative internal vessel area (IVA %)” value is “inhibited”. For the same molecule, in data set [3] (setting [6]), the blood pressure result is “no significant differences”, the body weight result is “no significant differences”, the fat mass result was “no significant differences” and the “whole body fluid content” value is on record as “no significant differences”. In the data set on THP-1 macrophages (imipramine 1 hour preincubation, 100 ng/mL M-CSF or 200 ng/mL PDGF, 50 μg/mL nLDL, 24 hours), the “M-CSF- and PDGF-induced intracellular lipid accumulation following nLDL treatment (Nile Red)” value is on record as “inhibited”. This molecule also gave an IC50 in data set [4] of 131 nM. Further, in data set [5], the oral bio-availability was 95%.

On to PDGF, for which, in the data set on THP-1 macrophages, the “macropinocytosis of nLDL (Nile Red fluorescence)” value is “stimulated”.

As to catalase, in the data set with THP-1 macrophages (non-pegylated SOD 100 U/mL and/or catalase 250 U/mL, 1 hr pretreatment, 50 μg/mL nLDL, 24 hours), the “M-CSF- and PDGF-induced nLDL internalization” value was “did not inhibit”.

B1: M-CSF: macrophage colony-stimulating factor, physiological stimulator of macropinocytosis (protein, UniProt P09603 33-554, looked up)
Macrophage colony-stimulating …: EEVSEYCSHMIGSGHLQSLQRLIDSQMETSCQITFEFVDQEQLKDPVCYLKKAFLLVQDIMEDTMRFRDNTPNAIAIVQLQELSLRLKSCFTKDYEEHDKACVRTFYETPLQLLEKVKNVFNETKNLLDKDWNIFSKNCNNSFAECSSQDVVTKPDCNCLYPKAIPSSDPASVSPHQPLAPSMAPVAGLTWEDSEGTEGSSLLPGEQPLHTVDPGSAKQRPPRSTCQSFEPPETPVVKDSTIGGSPQPRPSVGAFNPGMEDILDSAMGTNWVPEEASGEASEIPVPQGTELSPSRPGGGSMQTEPARPSNFLSASSPLPASAKGQQPADVTGTALPRVGPVRPTGQDWNHTPQKTDHPSALLRDPPEPGSPRISSLRPQGLSNPSTLSAQPQLSRSHSSGSVLPLGELEGRRSTRDRRSPAEPEGGPASEGAARPLPRFNSVPLTDTGHERQSEGSFSPQLQESVFHLLVPSVILVLLAVGGLLFYRWRRRSHQEPQRADSPLEQPEGSPLTQDDRQVELPV
On to B1, for which the “macropinocytosis of nLDL (Nile Red fluorescence)” value with THP-1 macrophages is given as “stimulated”.

The term IC50 denotes the concentration at which inhibition is half-maximal. A higher IC50 goes with lower potency.
